In the supplement of paper PMC11061612:

Tests used:
[1] = compound: COc1nnc2ccc(N3CCC(c4ccc(OCCN5CCN(C)C(=O)[C@H]5C)cc4)CC3)nn12 [AZD5153]; details: max 1 µM
Outline: (§1)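 Cancer cell lines were seeded in 1536-well plates in 7.5 μl DMEM/F12 or RPMI with 10% FBS, held 24 hours at 37°C and 5% CO2, then dosed for 72 hours (final DMSO typically 0.2%). Viability was read by CellTiter-Glo 2.0 luminescence and scaled between blank-well and DMSO-well means. The single-agent IC50 comes from dose responses fitted to a two-parameter logistic curve with a non-linear mixed effects model.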

[2] = compound: C[C@@H](Nc1cc(F)cc(F)c1)c1cc(C(=O)N(C)C)cc2c(=O)cc(N3CCOCC3)oc12 [AZD8186]; details: max 10 µM
Outline: as §1

[3] = compound: CC(=O)c1c(C)c2cnc(Nc3ccc(N4CCNCC4)cn3)nc2n(C2CCCC2)c1=O [Palbociclib]; details: max 10 µM
Outline: as §1

[4] = compound: COc1cc(Nc2ncc3c(n2)-c2ccc(Cl)cc2C(c2c(F)cccc2OC)=NC3)ccc1C(=O)O [Alisertib]; details: max 10 µM
Outline: as §1

[5] = compound: CC1=C(C(=CC=C1)Cl)NC(=O)C2=CN=C(S2)NC3=CC(=NC(=N3)C)N4CCN(CC4)CCO [Dasatinib]; details: max 2 µM
Outline: as §1

[6] = compound: O=C(c1cc(Cc2n[nH]c(=O)c3ccccc23)ccc1F)N1CCN(C(=O)C2CC2)CC1 [Olaparib]; details: max 10 µM
Outline: as §1

[7] = compound: CN(CC[C@H](CSC1=CC=CC=C1)NC2=C(C=C(C=C2)S(=O)(=O)NC(=O)C3=CC=C(C=C3)N4CCC(CC4)[C@H](C5=CC=CC=C5C6=CC=C(C=C6)Cl)O)S(=O)(=O)C(F)(F)F)CCO [AZD4320]; details: max 1 µM
Outline: as §1

[8] = compound: C[C@@H]1COCCN1C2=NC(=NC(=C2)C3(CC3)[S@](=N)(=O)C)C4=C5C=CNC5=NC=C4 [AZD6738]; details: max 10 µM
Outline: as §1

[9] = compound: COc1cccc(OCCCN)c1-c1cc(Nc2cnc(C#N)cn2)n[nH]1 [Prexasertib]; details: max 1 µM
Outline: as §1

[10] = compound: CC(=O)Nc1cccc(-n2c(=O)n(C3CC3)c(=O)c3c(Nc4ccc(I)cc4F)n(C)c(=O)c(C)c32)c1 [Trametinib]; details: max 1 µM
Outline: as §1

[11] = compound: COc1cc2ncnc(Nc3ccc(F)c(Cl)c3)c2cc1OCCCN1CCOCC1 [Gefitinib]; details: max 10 µM
Outline: as §1

[12] = compound: Cc1c2c(nn1C)CSCc1cc(n(C)n1)CSc1cc(c3ccccc3c1)OCCCc1c(C(=O)O)n(C)c3c-2c(Cl)ccc13 [AZD5991]; details: max 1 µM
Outline: as §1

[13] = compound: C1CC(C1)(C(=O)[O-])C(=O)[O-].N.N.[Pt+2] [Carboplatin]; details: max 10 µM
Outline: as §1

[14] = compound: CN(C)CCCOc1ccc(-c2ccc3ncc4c(c3c2)n(C2CCOCC2)c(=O)n4C)cn1 [AZD0156]; details: max 3 µM
Outline: as §1

[15] = compound: C[C@@H](c1ccc2nccn2c1)n1nnc2ncc(-c3cnn(C)c3)nc21 [Savolitinib]; details: max 1 µM
Outline: as §1

[16] = compound: CC1=CN2[C@@H](C1)C=NC3=CC(=C(C=C3C2=O)OC)OCCCCCOC4=C(C=C5C(=C4)N=C[C@@H]6CC(=CN6C5=O)C)OC [SG3199]; details: max 0.001 µM
Outline: as §1

[17] = compound: CC(C)n1c(=O)n(C)c2cnc3cc(F)c(-c4ccc(OCCCN5CCCCC5)nc4)cc3c21 [AZD1390]; details: max 0.3 µM
Outline: as §1

[18] = compound: CCc1c2c(nc3ccc(O)cc13)-c1cc3c(c(=O)n1C2)COC(=O)[C@]3(O)CC [SN-38]; details: max 0.3 µM
Outline: as §1

[19] = compound: COc1cccc2c1C(=O)c1c(O)c3c(c(O)c1C2=O)C[C@@](O)(C(=O)CO)C[C@@H]3O[C@H]1C[C@H](N)[C@H](O)[C@H](C)O1 [Doxorubicin]; details: max 1 µM
Outline: as §1

[20] = compound: NC1(c2ccc(-c3nc4ccn5c(=O)[nH]nc5c4cc3-c3ccccc3)cc2)CCC1 [MK-2206]; details: max 10 µM
Outline: as §1

[21] = compound: C[C@@H](Oc1cc(-c2cnn(C3CCNCC3)c2)cnc1N)c1c(Cl)ccc(F)c1Cl [Crizotinib]; details: max 10 µM
Outline: as §1

[22] = compound: C=CCn1c(=O)c2cnc(Nc3ccc(N4CCN(C)CC4)cc3)nc2n1-c1cccc(C(C)(C)O)n1 [AZD1775]; details: max 3 µM
Outline: as §1

[23] = compound: CCN(CCO)CCCOc1ccc2c(Nc3cc(CC(=O)Nc4cccc(F)c4)[nH]n3)ncnc2c1 [AZD2811]; details: max 1 µM
Outline: as §1

[24] = compound: Cc1nc(-c2cn3c(n2)-c2ccc(-c4cnn(C(C)(C)C(N)=O)c4)cc2OCC3)n(C(C)C)n1 [Taselisib]; details: max 10 µM
Outline: as §1

[25] = compound: O=c1[nH]cc(F)c(=O)[nH]1 [5-Fluorouracil]; details: max 20 µM
Outline: as §1

[26] = compound: C1CN(CCC1(C(=O)N[C@@H](CCO)C2=CC=C(C=C2)Cl)N)C3=NC=NC4=C3C=CN4 [AZD5363]; details: max 10 µM
Outline: as §1

[27] = compound: N#Cc1cnc(Nc2cc(NC[C@H]3CNCCO3)c(C(F)(F)F)cn2)cn1 [SRA737]; details: max 10 µM
Outline: as §1

[28] = compound: Cn1cnc2c(F)c(Nc3ccc(Br)cc3Cl)c(C(=O)NOCCO)cc21 [Selumetinib]; details: max 10 µM
Outline: as §1

[29] = compound: CS(=O)(=O)CCNCc1ccc(-c2ccc3ncnc(Nc4ccc(OCc5cccc(F)c5)c(Cl)c4)c3c2)o1 [Lapatinib]; details: max 10 µM
Outline: as §1

[30] = compound: CC1(C)CCC(CN2CCN(c3ccc(C(=O)NS(=O)(=O)c4ccc(NCC5CCOCC5)c([N+](=O)[O-])c4)c(Oc4cnc5[nH]ccc5c4)c3)CC2)=C(c2ccc(Cl)cc2)C1 [Venetoclax]; details: max 1 µM
Outline: as §1

[31] = compound: CC(=O)O[C@H]1C(=O)[C@@]2(C)[C@H]([C@H](OC(=O)c3ccccc3)[C@]3(O)C[C@H](OC(=O)[C@H](O)[C@@H](NC(=O)c4ccccc4)c4ccccc4)C(C)=C1C3(C)C)[C@]1(OC(C)=O)CO[C@@H]1C[C@@H]2O [Paclitaxel]; details: max 3 µM
Outline: as §1

[32] = compound: COc1cc([C@@H]2c3cc4c(cc3[C@@H](O[C@@H]3O[C@@H]5CO[C@@H](C)O[C@H]5[C@H](O)[C@H]3O)[C@H]3COC(=O)[C@H]23)OCO4)cc(OC)c1O [Etoposide]; details: max 10 µM
Outline: as §1

[33] = compound: Nc1ccn([C@@H]2O[C@H](CO)[C@@H](O)C2(F)F)c(=O)n1 [Gemcitabine]; details: max 0.3 µM
Outline: as §1

[34] = compound: O=C(Nc1ccc2[nH]nc(-c3ccncc3)c2c1)[C@@H]1CCN(CC(=O)N2CCN(c3ccc(-c4ncccn4)cc3)CC2)C1; details: max 5 µM
Outline: as §1

[35] = compound: Cc1cc2ncnn2cc1Nc1ncc2c(n1)n(C1CCOCC1)c(=O)n2C [AZD7648]; details: max 10 µM
Outline: as §1

Cell Line | IC50, cell viability 72 h [1] [nM] | IC50, cell viability 72 h [2] [nM] | IC50, cell viability 72 h [3] [nM] | IC50, cell viability 72 h [4] [nM] | IC50, cell viability 72 h [5] [nM] | IC50, cell viability 72 h [6] [nM] | IC50, cell viability 72 h [7] [nM] | IC50, cell viability 72 h [8] [nM] | IC50, cell viability 72 h [9] [nM] | IC50, cell viability 72 h [10] [nM] | IC50, cell viability 72 h [11] [nM] | IC50, cell viability 72 h [12] [nM] | IC50, cell viability 72 h [13] [nM] | IC50, cell viability 72 h [14] [nM] | IC50, cell viability 72 h [15] [nM] | IC50, cell viability 72 h [16] [nM] | IC50, cell viability 72 h [17] [nM] | IC50, cell viability 72 h [18] [nM] | IC50, cell viability 72 h [19] [nM] | IC50, cell viability 72 h [20] [nM] | IC50, cell viability 72 h [21] [nM] | IC50, cell viability 72 h [22] [nM] | IC50, cell viability 72 h [23] [nM] | IC50, cell viability 72 h [24] [nM] | IC50, cell viability 72 h [25] [nM] | IC50, cell viability 72 h [26] [nM] | IC50, cell viability 72 h [27] [nM] | IC50, cell viability 72 h [28] [nM] | IC50, cell viability 72 h [29] [nM] | IC50, cell viability 72 h [30] [nM] | IC50, cell viability 72 h [31] [nM] | IC50, cell viability 72 h [32] [nM] | IC50, cell viability 72 h [33] [nM] | IC50, cell viability 72 h [34] [nM] | IC50, cell viability 72 h [35] [nM]
IST-MEL1 (Melanoma) | > 1000 | > 10000 | > 10000 | > 10000 | > 2000 | > 10000 | > 1000 | 5600 | 39.6 | 934 | > 10000 | > 1000 | > 10000 | > 3000 | > 1000 | > 1 | > 300 | 18.1 | 677 | > 10000 | > 10000 | 1480 | > 1000 | > 10000 | > 20000 | > 10000 | > 10000 | > 10000 | > 10000 | > 1000 | 252 | 9750 | 70.9 | > 5000 | > 10000
HPAF-II (Pancreatic Carcinoma) | > 1000 | > 10000 | > 10000 |  | > 2000 | > 10000 | 766 | > 10000 |  | 101 | > 10000 | > 1000 | > 10000 | > 3000 | > 1000 |  | > 300 | > 300 |  | > 10000 | > 10000 | 1890 | > 1000 | > 10000 | > 20000 | > 10000 | > 10000 | 8240 | > 10000 | > 1000 | 625 | > 10000 | > 300 | > 5000 | > 10000
MONO-MAC-6 (Acute Myeloid Leukemia) | 30.6 | 6440 | > 10000 | 2090 | > 2000 | > 10000 | > 1000 | 3400 | 52 | 446 | > 10000 | 67.8 | > 10000 | > 3000 | > 1000 | > 1 | > 300 | 7.64 | 127 | 4140 | 2980 | 535 | 303 | 4750 | 1630 | 5270 | 3350 | > 10000 | > 10000 | > 1000 | 7.21 | 2850 | 4.43 | 2100 | > 10000
SNU-423 (Hepatocellular Carcinoma) | > 1000 | > 10000 | > 10000 | > 10000 | > 2000 | > 10000 | > 1000 | > 10000 | 166 | > 1000 | > 10000 | > 1000 | > 10000 | > 3000 | > 1000 | > 1 | > 300 | > 300 | > 1000 | > 10000 | > 10000 | 2150 | > 1000 | > 10000 | > 20000 | > 10000 | > 10000 | > 10000 | > 10000 | > 1000 | 124 | > 10000 | > 300 | > 5000 | > 10000
SK-CO-1 (Colorectal Carcinoma) | > 1000 | 9810 | > 10000 | 3130 | > 2000 | > 10000 | 700 | 6580 | 248 | 5.27 | > 10000 | > 1000 | > 10000 | > 3000 | > 1000 | > 1 | > 300 | 5.9 | 185 | > 10000 | 1800 | 1240 | 383 | 1220 | > 20000 | > 10000 | > 10000 | 1120 | > 10000 | > 1000 | 4.07 | 2140 | 9.48 | 85.6 | > 10000
BxPC-3 (Pancreatic Carcinoma) | > 1000 | > 10000 | > 10000 | > 10000 | 1850 | > 10000 | > 1000 | > 10000 | 68.4 | 487 | > 10000 | > 1000 | > 10000 | > 3000 | > 1000 | > 1 | > 300 | > 300 | > 1000 | > 10000 | > 10000 | 1710 | > 1000 | > 10000 | > 20000 | > 10000 | > 10000 | > 10000 | > 10000 | > 1000 | 602 | > 10000 | > 300 | 4090 | > 10000
